Laboratory results from PubChem BioAssay AID179 (DTP/NCI, 2004).
The source made the active and inactive calls.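 How the source made its calls: active means compounds giving half or more protection of infected cells from virus-caused growth loss, again on retest; inactive means the rest.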 Where a SMILES comes first, the peptide text is derived from it.

System: CEM cells HIV-1 protection, formazan growth assay
Test: NCI AIDS Antiviral Assay
Conditions: for IC50: measured here: growth of uninfected CEM cells
Summary of the method: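 Five concentrations of each compound were applied to infected and uninfected human CEM cells. Protection from HIV-1 was judged from growth measured with a soluble formazan assay.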

Structure (SMILES)	EC50	IC50	outcome
Fc1cccc2c1[nH]c1c2ncc2[nH]c3ccccc3c21	> 20 µM	6.92 µM	–
CC(C)(C)NNc1c([N+](=O)[O-])cnn(-c2ccccc2)c1=O	> 49 µM	0.251 µM	–
Cc1ccc(S(=O)(=O)c2ccccc2[N+](=O)[O-])cc1	14.5 µM	81.3 µM	–
CC1(C)CNCC2(C)OCCCOC3(C)CNCC(C)(C)NC(=O)C(C)(CNCC(C)(C)NC3=O)OCCCOC(C)(CNCC(C)(C)NC2=O)C(=O)N1	> 200 µM	> 200 µM	–
CCc1ccc(/C(C)=N/NC(N)=S)cc1	–	–	inactive
Cc1ccc(Nc2ncnc3sc(SCc4ccccc4)nc23)cc1	–	–	inactive
CC(C)C(NC(=O)OC(C)(C)C)C(=O)N1CC[C@@H](O)[C@H]1C(O)CC(=O)OC(C)(C)C (stereo not given in full)	> 200 µM	> 200 µM	–
CCOC(=O)/C(C#N)=C/c1cccc(Cl)c1	> 79.4 µM	> 79.4 µM	–
S=c1[nH]ccs1	> 200 µM	> 200 µM	–
Cc1cccc(C[P+](c2ccccc2)(c2ccccc2)c2ccccc2)c1	> 200 µM	0.631 µM	–
O=C1/C(=C/c2ccc(Cl)c(Cl)c2)CCC/C1=C\c1ccc(Cl)c(Cl)c1	> 50.1 µM	2.95 µM	–
CC(=O)C1=C(C)N2C(=NC3=C(CCc4ccccc43)C2c2cccc(Br)c2)S1 (stereo not given)	> 200 µM	81.3 µM	–
CCCN1C(=O)CN(S(=O)(=O)c2ccc(Cl)cc2)C1=O	> 200 µM	> 200 µM	–
O=C(NC1CCCCC1)N1CCNC1=S	> 200 µM	> 200 µM	–
O=[N+]([O-])c1ccccc1/C=C/c1ccccn1	> 16.6 µM	> 16.6 µM	–
c1cnc2c(c1)-n1cccc1C1(CCSCC1)NN2	> 60.3 µM	> 60.3 µM	–
COC(=O)C1=CN=C(C(=O)OC)NN1	> 1260 µM	537 µM	–
c1ccc2c(c1)ncn2CCn1ccnc1	> 200 µM	> 200 µM	–
Cc1cccc(/C=N/NC(=S)N2CCCCCC2)n1	> 200 µM	0.0631 µM	–
Nc1ncnc2c1ncn2C1CCCCC1O (stereo not given)	> 58.9 µM	> 58.9 µM	–
CCN(CC)C(=Nc1ccc(Cl)c(Cl)c1)SC(NC=O)=C(Cl)Cl	> 200 µM	19.5 µM	–
CC(C)CC(NC(=O)C(Cc1cnc[nH]1)NC(=O)C(CC(N)=O)NC(=O)C(NC(=O)C(CO)NC(=O)C(Cc1ccc(O)cc1)NC(=O)C(CO)NC(=O)C(C)NC(=O)C(N)CCCCN)C(C)O)C(=O)O (stereo not given) (H-KASYSTNHL-OH; configuration not given here)	> 61.7 µM	> 61.7 µM	–

Structure (SMILES)	EC50	IC50	outcome
O=C1NC(c2ccccc2)C1N(Cc1ccccc1)Cc1ccccc1 (stereo not given)	> 200 µM	> 200 µM	–
CN(C)COC(=S)SSSC(=S)OCN(C)C	0.195 µM	0.724 µM	–
CC1(O)C[C@]23CC[C@H]4[C@@H](CC=C5C[C@@H](O)CC[C@@]54C)[C@@H]2CC[C@H]13 (stereo not given in full)	> 200 µM	> 200 µM	–
CCOC(=O)NC(C(=O)OCC)C(F)(F)F (stereo not given)	> 200 µM	102 µM	–
Cc1cc(Cl)ccc1NC(=O)CCCC(=O)C1CCC/C1=N\NC(=O)CC#N (stereo not given)	> 64.6 µM	> 64.6 µM	–
CCCNC(=S)/N=C/c1c(O)cc(C)oc1=O	> 200 µM	> 200 µM	–
CCOC(=O)/C(C#N)=C/c1c[nH]c2ccccc12	> 200 µM	158 µM	–
CC1=CC(c2ccccc2)n2c(nc3cc4ccccc4cc32)N1 (stereo not given)	> 200 µM	> 200 µM	–
CCOC(=O)C(C)(C)/C=C\C(Cl)=C(Cl)Cl	> 200 µM	117 µM	–
O=C1c2ccccc2C(=O)C1(Br)C(Cl)c1ccccc1 (stereo not given)	> 200 µM	3.55 µM	–
CN(C)c1ccc(C2SCC(=O)N2c2ccc(Oc3ccc(Cl)cc3)c(Cl)c2)cc1 (stereo not given)	> 200 µM	29.5 µM	–
Nc1nc(NCCCO)cc(=O)[nH]1	> 200 µM	> 200 µM	–
OCC1OC(n2cnc(C3=NCC(O)CN3)n2)C(O)C1O (stereo not given)	–	–	inactive
CCn1c(SCC(=O)NNC(=S)Nc2ccc(C)cc2)nc2ccccc2c1=O	> 200 µM	105 µM	–
Cc1nn(-c2ccccn2)c2ncnc(N)c12	> 200 µM	162 µM	–
CCN(CC)CCNc1ccc(CO)c2sc3ccccc3c(=O)c12	–	2690 µM	inactive
CC1SC2=NC3=C(c4ccccc4C3=O)C(c3ccc(Cl)cc3)N2C1=O (stereo not given)	> 35.5 µM	> 35.5 µM	–
O=C1CSC(/C(=N/Nc2ccccc2)c2nc3ccccc3[nH]2)=N1	> 15.5 µM	> 15.5 µM	–
[N-]=[N+]=Nc1nnc(CCCCc2nnc(N=[N+]=[N-])o2)o1	> 468 µM	138 µM	–
CC1OC(O[C@H]2/C=C/C=C/C=C/C=C/C=C/C=C/C=C/[C@H](C)[C@@H](O)[C@@H](C)[C@H](C)OC(=O)C[C@H](O)C[C@H](O)CC[C@@H](O)[C@H](O)C[C@H](O)C[C@]3(O)C[C@H](O)[C@@H](C(=O)O)[C@H](C2)O3)C(O)C(N)C1O (stereo not given in full)	> 4.9 µM	–	–
CC(C)[Si](OC1=C(C(=O)N(C)c2cccc(Cl)c2)CCCC1)(C(C)C)C(C)C	> 200 µM	9.77 µM	–
COc1cc2cc3c4c(cc(OC)c(OC)c4c2cc1OC)CCN3C(=O)CCCC(=O)O	> 200 µM	110 µM	–

Structure (SMILES)	EC50	IC50	outcome
Nc1nc(Cl)cc(NCCCCCNc2cc(Cl)nc(N)n2)n1	–	–	inactive
CCOC(=O)c1cc2c(nc1N)/C(=C/c1ccccc1)CCCC2	> 200 µM	10.7 µM	–
COC(=O)c1c2c(cc3c1CC1(C3)Cc3cc4c(c(C(C)=O)c3C1)CCC4)C=CC2 (stereo not given)	> 200 µM	> 200 µM	–
COC(=O)C1(OC(=O)Sc2ccccc2)CCN(C)CC1	> 200 µM	26.3 µM	–
OCC1(CNc2cc(Cl)ncn2)CCC1	> 200 µM	> 200 µM	–
Nc1nc2c(ncn2C2C=CC(COS(N)(=O)=O)C2)c(=O)[nH]1 (stereo not given)	> 200 µM	> 200 µM	–
COc1ccc(S(=O)(=O)N/N=C(\C)CN2C(=O)c3ccccc3C2=O)cc1	> 129 µM	> 129 µM	–
Cc1cccc(-n2nc3c(=O)n(C)c(=O)n(C)c3nc2=O)c1	> 200 µM	> 200 µM	–
Cc1ccc(O)c(N=O)c1.[Cu+2]	> 200 µM	2.63 µM	–
COc1cccc2ccc3c(c12)C(O)OC31CCc2c(C)cccc21 (stereo not given)	> 85.1 µM	42.7 µM	–
COc1ccc(OC)c(N(CN2C(=O)CCC2C(=O)O)C(C)=O)c1 (stereo not given)	> 200 µM	> 200 µM	–
N#C/C(=C/n1c(=S)[nH]c2ccccc21)C(N)=O	> 200 µM	> 200 µM	–
CC1(C)OC(=O)C(=Cc2ccc(F)cc2)C(=O)O1	> 525 µM	170 µM	–
O=C1c2ccccc2C(=O)C1(Cl)C1(Cl)C(=O)c2ccccc2C1=O	–	–	inactive
Cc1ncc(CO)c(CO)c1OCC(O)CN1CCN(C(=O)c2ccccc2)CC1 (stereo not given)	> 200 µM	> 200 µM	–
CS/C(=C(\S)c1ccccc1)c1ccccc1	–	–	inactive
CCOC(=O)C1(C(=O)OCC)CCCN1C(=O)[C@H](CNC(=O)OC(C)(C)C)NC(=O)OCc1ccccc1	–	–	inactive
CC1=NC(=Cc2ccc([N+](=O)[O-])cc2)C(=O)N1n1c(-c2ccccc2)nc2ccccc2c1=O	> 200 µM	34.7 µM	–
CSc1nc(C)cc(N(C)c2ccccc2)n1	> 200 µM	32.4 µM	–
N#Cc1c(C[n+]2ccccc2)c2ccccc2oc1=O	617 µM	646 µM	–
